In PMC4738246, “Conformational dynamics is key to understanding loss-of-function of NQO1 cancer-associated polymorphisms and its correction by pharmacological ligands” (Scientific Reports, 2016):
Where two headings read alike, the source gives them in different places.

Tests used:
NQO1 WT [1] = target: T1, NQO1 WT (Homo sapiens, UniProt P15559); design: made in house; conditions: FAD binding to WT, two-sequential binding sites model, average of two titrations, cited from earlier work
NQO1 p.P187S [2] = target: T2, NQO1 p.P187S (Homo sapiens, UniProt P15559, P187S); design: made in house; conditions: FAD binding to p.P187S; single set of sites model; average of two titrations; read-out: Kd1; cited from earlier work
T2 sequence (P15559 whole entry P187S): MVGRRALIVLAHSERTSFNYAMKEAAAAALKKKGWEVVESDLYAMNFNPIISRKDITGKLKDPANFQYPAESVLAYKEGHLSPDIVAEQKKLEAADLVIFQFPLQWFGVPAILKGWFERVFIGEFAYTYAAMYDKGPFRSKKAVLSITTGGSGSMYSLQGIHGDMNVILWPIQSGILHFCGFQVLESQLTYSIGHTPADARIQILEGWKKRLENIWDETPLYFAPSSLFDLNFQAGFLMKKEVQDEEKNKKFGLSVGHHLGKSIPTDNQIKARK

NQO1 p.R139W [3] = target: T3, NQO1 p.R139W (Homo sapiens, UniProt P15559, R139W); design: made in house; conditions: FAD binding to p.R139W, two-sequential binding sites model, average of two titrations, cited from earlier work
T3 sequence (P15559 whole entry R139W): as the sequence (P15559 whole entry P187S) above, with R139W, S187P counted along it

NQO1 p.P187S [4] = target: T2, NQO1 p.P187S; assay: Binding affinity by ITC, p.P187S NQO1; conditions: FAD and dicoumarol stated together
Method: After peak integration, binding isotherms were analyzed using a one-type of independent sites model using the software provided by the manufacturer.

NQO1 WT [5] = target: T1, NQO1 WT; assay: Proteolysis by thermolysin, WT NQO1; conditions: WT apo-protein vs as purified
Method: (§2) Proteolysis was performed at 25 °C in HEPES-KOH 50 mM CaCl2 10 mM pH 7.4 using 20 μM in NQO1 (monomer), and the reaction was initiated by the addition of thermolysin (at a final concentration of 10 pM-1 μM) in a final volume of 200 μL. Proteolysis reactions were performed using the NQO1 proteins as purified or as apo-proteins. […] After normalization of the intensities using that of the control sample in the absence of thermolysin, the Intensity (I) vs. Time (t) profiles were analyzed using a single exponential function:
(§3) where k is the proteolysis rate constant and I0 the initial intensity.

NQO1 p.R139W [6] = target: T3, NQO1 p.R139W; assay: Proteolysis by thermolysin, p.R139W NQO1; conditions: p.R139W apo-protein vs as purified
Method: as §2, §3

[7] = system: Caco-2 cells (homozygous for p.P187S); assay: Steady-state NQO1 protein levels by immunoblotting, Caco-2 cells; type: cell-based, human; conditions: 24 h, dicoumarol 100 μM, riboflavin 10 μM, normalized to untreated cells
Method: (§1) After transferring to polyvinylidene difluoride membranes (GE Healthcare), immunoblotting was carried out using primary monoclonal antibodies anti-NQO1 and anti-β-actin (Santa Cruz Biotechnology) from mouse at 1:500 and 1:10000 dilutions, respectively. As secondary antibody, we used goat anti-mouse IgG-HRP (Santa Cruz Biotechnology) at 1:1000 dilution. Chemiluminiscent detection of bands was carried out using Clarity™ Western ECL Blotting Substrate (Biorad) and analyzed using a luminescent image analyzer LAS-4000 mini (Fujifilm).

[8] = system: HeLa cells (expressing WT NQO1); conditions: 24 h, dicoumarol 100 μM, riboflavin 10 μM
Method: as §1

[9] = system: HCT 116 cells (heterozygous for p.R139W); conditions: 24 h, dicoumarol 100 μM, riboflavin 10 μM
Method: as §1

T1 sequence (P15559 whole entry): as the sequence (P15559 whole entry P187S) above, with S187P counted along it

Row | lower affinity of p.P187S than the WT enzyme (NQO1 p.P187S [4]) | increase in the sensitivity towards thermolysin on removal of FAD (NQO1 WT [5]) [fold] | increase in the sensitivity towards thermolysin on removal of FAD (NQO1 p.R139W [6]) [fold] | SMILES | Kd (NQO1 WT [1]; read-out: Kd1) [nM] | Kd (NQO1 WT [1]; read-out: Kd2) [nM] | Kd (NQO1 p.P187S [2]) [nM] | Kd (NQO1 p.R139W [3]; read-out: Kd1) [nM] | Kd (NQO1 p.R139W [3]; read-out: Kd2) [nM] | enhancement of steady-state levels of p.P187S NQO1 protein [7] | effect on protein levels of WT NQO1 [8] | effect on protein levels of p.R139W NQO1 [9]
1 | 10–100 fold | 200 | 200 | Cc1cc2nc3c(=O)[nH]c(=O)nc-3n(C[C@H](O)[C@H](O)[C@H](O)COP(=O)(O)OP(=O)(O)OC[C@H]3O[C@@H](n4cnc5c(N)ncnc54)[C@H](O)[C@@H]3O)c2cc1C [FAD] | ~1 | 60 | 400 | ~3 | 70 | – | – | –
2 | – | – | – | Cc1cc2nc3c(=O)[nH]c(=O)nc-3n(C[C@H](O)[C@H](O)[C@H](O)CO)c2cc1C [riboflavin] | – | – | – | – | – | much lower effect | small effects | small effects
